This note sets out measurements from PubChem BioAssay AID220 (DTP/NCI, 2004).

“And” between values parts separate entries of the source, which are not always exact repeats. Equal entries are not always repeated. Results filed as inconclusive are left out.

In this assay the test system is CD8F1 mice, subcutaneous mammary adenocarcinoma, T/C%. Kind of assay: NCI In Vivo Anticancer Drug Screen. Data for tumor model Mammary Adenocarcinoma CD8F1 (subcutaneous) in CD8F1. The note with it: higher = larger tumour. The method, then: The antitumor activity of compounds was measured in mice bearing transplantable tumors. Survival or tumor size were measured and the results are expressed as the measurement made in the treated group (T) divided by the measurement made in the vehicle treated control group (C). The tumor model used in this assay is Mammary Adenocarcinoma CD8F1 (subcutaneous) in CD8F1

The mark [1] stands for this setting: endpoint: median tumor weight (est.), dose: 25.0 mg/kg/injection, schedule: Q07DX005 (ip), vehicle: saline with Tween-80.
Where [2] appears, read: endpoint: median tumor weight change, dose: 125.0 mg/kg/injection, schedule: Q01DX001 (ip), vehicle: saline with Tween-80.
Setting [3] is: endpoint: median tumor weight change, dose: 250.0 mg/kg/injection, schedule: Q01DX001 (ip), vehicle: saline with Tween-80.

On to `COCC(O)Cn1ccnc1[N+](=O)[O-]` (centres undefined), for which the T/C is, setting by setting: (endpoint: median tumor weight (est.), dose: 8.0 mg/kg/injection, schedule: Q07DX005 (ip), vehicle: Klucel (hydroxypropylcellulose) (HPC)) 101 % of control; (endpoint: median tumor weight (est.), dose: 8.0 mg/kg/injection, schedule: Q07DX005 (ip), vehicle: saline) 183 % of control; (endpoint: median tumor weight (est.), dose: 16.0 mg/kg/injection, schedule: Q07DX005 (ip), vehicle: Klucel (hydroxypropylcellulose) (HPC)) 124 % of control; (endpoint: median tumor weight (est.), dose: 16.0 mg/kg/injection, schedule: Q07DX005 (ip), vehicle: saline) 256 % of control; (endpoint: median tumor weight (est.), dose: 32.0 mg/kg/injection, schedule: Q07DX005 (ip), vehicle: saline) 256 % of control; (endpoint: median tumor weight (est.), dose: 64.0 mg/kg/injection, schedule: Q07DX005 (ip), vehicle: Klucel (hydroxypropylcellulose) (HPC)) 74 % of control. Besides, the T/C is, setting by setting: (endpoint: median tumor weight (est.), dose: 64.0 mg/kg/injection, schedule: Q07DX005 (ip), vehicle: saline) 249 % of control; (endpoint: median tumor weight (est.), dose: 128.0 mg/kg/injection, schedule: Q07DX005 (ip), vehicle: Klucel (hydroxypropylcellulose) (HPC)) 88 % of control; (endpoint: median tumor weight (est.), dose: 128.0 mg/kg/injection, schedule: Q07DX005 (ip), vehicle: saline) 488 % of control; (endpoint: median tumor weight (est.), dose: 256.0 mg/kg/injection, schedule: Q07DX005 (ip), vehicle: Klucel (hydroxypropylcellulose) (HPC)) 121 % of control; (endpoint: median tumor weight (est.), dose: 256.0 mg/kg/injection, schedule: Q07DX005 (ip), vehicle: saline) 108 % of control.

With `O=C(CCCN1CCC(O)(c2cccc(C(F)(F)F)c2)CC1)c1ccc(F)cc1`, the T/C runs as follows: (endpoint: median tumor weight (est.), dose: 3.12 mg/kg/injection, schedule: Q07DX005 (ip), vehicle: Klucel (hydroxypropylcellulose) (HPC)) 116 % of control and 118 % of control; (endpoint: median tumor weight (est.), dose: 50.0 mg/kg/injection, schedule: Q07DX005 (ip), vehicle: Klucel (hydroxypropylcellulose) (HPC)) 55 % of control and 62 % of control.

Take `C=C(C)C(=O)OC1C/C(CO)=C\C(O)C/C(C)=C/C2OC(=O)C(=C)C21` (centres undefined): the T/C reads like this: (endpoint: median tumor weight change, dose: 12.0 mg/kg/injection, schedule: Q01DX001 (ip), vehicle: saline + alcohol) 86 % of control; (endpoint: median tumor weight change, dose: 25.0 mg/kg/injection, schedule: Q01DX001 (ip), vehicle: saline + alcohol) 49 % of control; (endpoint: median tumor weight change, dose: 50.0 mg/kg/injection, schedule: Q01DX001 (ip), vehicle: saline + alcohol) 69 % of control; (endpoint: median tumor weight change, dose: 100.0 mg/kg/injection, schedule: Q01DX001 (ip), vehicle: saline + alcohol) 60 % of control.

With `CCCCCCCCNc1cc2c3c(c1)CCCN3CCC2`, the T/C reads like this: (endpoint: median tumor weight (est.), dose: 0.75 mg/kg/injection, schedule: Q07DX005 (ip), vehicle: Klucel (hydroxypropylcellulose) (HPC)) 88 % of control; (endpoint: median tumor weight (est.), dose: 1.5 mg/kg/injection, schedule: Q07DX005 (ip), vehicle: Klucel (hydroxypropylcellulose) (HPC)) 87 % of control; (endpoint: median tumor weight (est.), dose: 3.0 mg/kg/injection, schedule: Q07DX005 (ip), vehicle: Klucel (hydroxypropylcellulose) (HPC)) 81 % of control; (endpoint: median tumor weight (est.), dose: 6.0 mg/kg/injection, schedule: Q07DX005 (ip), vehicle: Klucel (hydroxypropylcellulose) (HPC)) 103 % of control.

Regarding `S=C=NCCc1ccccc1`, the T/C was 120 % of control under setting [1]; 111 % of control (endpoint: median tumor weight (est.), dose: 50.0 mg/kg/injection, schedule: Q07DX005 (ip), vehicle: saline with Tween-80); 53 % of control (endpoint: median tumor weight (est.), dose: 100.0 mg/kg/injection, schedule: Q07DX005 (ip), vehicle: saline with Tween-80).

As to `CCOC(=O)c1[nH]c2cccc3c2c1CC(Br)C3=O` (centres undefined), the T/C is 86 % of control under setting [2] and 52 % of control under setting [3].

As for `CC(C)[C@](O)(C(=O)OCC1=CCN2CC[C@@H](O)[C@@H]12)[C@H](C)O`, the T/C is 78 % of control (endpoint: median tumor weight change, dose: 125.0 mg/kg/injection, schedule: Q01DX001 (ip), vehicle: water) and 179 % of control (endpoint: median tumor weight change, dose: 250.0 mg/kg/injection, schedule: Q01DX001 (ip), vehicle: water).

As to `Oc1cc2c3c(c1)c1cc4c(cc1c[n+]3CC2)OCO4`, the T/C reads like this: (endpoint: median tumor weight (est.), dose: 6.25 mg/kg/injection, schedule: Q07DX005 (ip), vehicle: water) 81 % of control; (endpoint: median tumor weight (est.), dose: 12.5 mg/kg/injection, schedule: Q07DX005 (ip), vehicle: water) 83 % of control; (endpoint: median tumor weight (est.), dose: 25.0 mg/kg/injection, schedule: Q07DX005 (ip), vehicle: water) 85 % of control; (endpoint: median tumor weight (est.), dose: 50.0 mg/kg/injection, schedule: Q07DX005 (ip), vehicle: water) 94 % of control; (endpoint: median tumor weight (est.), dose: 100.0 mg/kg/injection, schedule: Q07DX005 (ip), vehicle: water) 78 % of control.

Take `COc1cc(C(=O)c2cc3c(cc2C)OCO3)cc(OC)c1OC`: the T/C was 59 % of control and 75 % of control (endpoint: median tumor weight change, dose: 125.0 mg/kg/injection, schedule: Q01DX001 (ip), vehicle: Klucel (hydroxypropylcellulose) (HPC)); 47 % of control and 54 % of control (endpoint: median tumor weight change, dose: 250.0 mg/kg/injection, schedule: Q01DX001 (ip), vehicle: Klucel (hydroxypropylcellulose) (HPC)); 70 % of control (endpoint: median tumor weight change, dose: 500.0 mg/kg/injection, schedule: Q01DX001 (ip), vehicle: Klucel (hydroxypropylcellulose) (HPC)).

Turning to `C=C(NC(=O)C(=C)NC(=O)c1csc(C2=NC3c4csc(n4)C4NC(=O)c5csc(n5)C(C(C)(O)C(C)O)NC(=O)C5CSC(=N5)/C(=C/C)NC(=O)C(C(C)O)NC(=O)c5csc(n5)C3(CC2)NC(=O)C(C)NC(=O)C(=C)NC(=O)C(C)NC(=O)C(C(C)CC)NC2C=Cc3c(C(C)O)cc(nc3C2O)C(=O)OC4C)n1)C(N)=O` (centres undefined), the T/C was 72 % of control (endpoint: median tumor weight (est.), dose: 6.25 mg/kg/injection, schedule: Q07DX005 (ip), vehicle: Klucel (hydroxypropylcellulose) (HPC)); 64 % of control and 70 % of control (endpoint: median tumor weight (est.), dose: 12.5 mg/kg/injection, schedule: Q07DX005 (ip), vehicle: Klucel (hydroxypropylcellulose) (HPC)); 83 % of control and 103 % of control (endpoint: median tumor weight (est.), dose: 200.0 mg/kg/injection, schedule: Q07DX005 (ip), vehicle: Klucel (hydroxypropylcellulose) (HPC)); 90 % of control (endpoint: median tumor weight (est.), dose: 400.0 mg/kg/injection, schedule: Q07DX005 (ip), vehicle: Klucel (hydroxypropylcellulose) (HPC)).

Take `O=NN(CCCl)C(=O)NC1OC(CO)C(O)C(O)C1O` (centres undefined): the T/C is 113 % of control (endpoint: median tumor weight (est.), dose: 1.25 mg/kg/injection, schedule: Q07DX005 (ip), vehicle: saline); 91 % of control (endpoint: median tumor weight (est.), dose: 2.5 mg/kg/injection, schedule: Q07DX005 (ip), vehicle: saline); 106 % of control (endpoint: median tumor weight (est.), dose: 5.0 mg/kg/injection, schedule: Q07DX005 (ip), vehicle: saline); 29 % of control (endpoint: median tumor weight (est.), dose: 10.0 mg/kg/injection, schedule: Q07DX005 (ip), vehicle: saline).

Turning to `COc1cccc2c1C(=O)c1c(O)c3c(c(O)c1C2=O)C[C@@](O)(C(C)=O)C[C@@H]3OC1CC(N(Cc2ccccc2)Cc2ccccc2)C(O)C(C)O1` (some centres undefined), the T/C was 68 % of control (endpoint: median tumor weight (est.), dose: 1.56 mg/kg/injection, schedule: Q07DX005 (ip), vehicle: saline with Tween-80); 72 % of control (endpoint: median tumor weight (est.), dose: 3.12 mg/kg/injection, schedule: Q07DX005 (ip), vehicle: saline with Tween-80); 75 % of control (endpoint: median tumor weight (est.), dose: 6.25 mg/kg/injection, schedule: Q07DX005 (ip), vehicle: saline with Tween-80); 29 % of control (endpoint: median tumor weight (est.), dose: 12.5 mg/kg/injection, schedule: Q07DX005 (ip), vehicle: saline with Tween-80); 9 % of control under setting [1].

On to `OC(CCl)CN1CC[N+]2(CC1)CC[N+]1(CCN(CC(O)CCl)CC1)CC2` (centres undefined), for which the T/C is 57 % of control (endpoint: median tumor weight (est.), dose: 12.5 mg/kg/injection, schedule: Q07DX005 (ip), vehicle: saline); 67 % of control (endpoint: median tumor weight (est.), dose: 25.0 mg/kg/injection, schedule: Q07DX005 (ip), vehicle: saline); 80 % of control (endpoint: median tumor weight (est.), dose: 50.0 mg/kg/injection, schedule: Q07DX005 (ip), vehicle: saline); 43 % of control (endpoint: median tumor weight (est.), dose: 100.0 mg/kg/injection, schedule: Q07DX005 (ip), vehicle: saline); 36 % of control (endpoint: median tumor weight (est.), dose: 200.0 mg/kg/injection, schedule: Q07DX005 (ip), vehicle: saline); 11 % of control (endpoint: median tumor weight (est.), dose: 400.0 mg/kg/injection, schedule: Q07DX005 (ip), vehicle: saline). Moreover, the T/C (endpoint: median tumor weight change, dose: 50.0 mg/kg/injection, schedule: Q01DX001 (ip), vehicle: saline) was 101 % of control; the T/C (endpoint: median tumor weight change, dose: 100.0 mg/kg/injection, schedule: Q01DX001 (ip), vehicle: saline) was 111 % of control; the T/C (endpoint: median tumor weight change, dose: 200.0 mg/kg/injection, schedule: Q01DX001 (ip), vehicle: saline) was 96 % of control and 119 % of control; the T/C (endpoint: median tumor weight change, dose: 800.0 mg/kg/injection, schedule: Q01DX001 (ip), vehicle: saline) was 49 % of control and 56 % of control.

Take `C=C(C)[C@@H]1CCc2c(O)c(O)c(=O)cc(C)c2C1`: the T/C is 83 % of control (endpoint: median tumor weight change, dose: 31.0 mg/kg/injection, schedule: Q01DX001 (ip), vehicle: saline with Tween-80); 57 % of control (endpoint: median tumor weight change, dose: 62.0 mg/kg/injection, schedule: Q01DX001 (ip), vehicle: saline with Tween-80); 88 % of control under setting [2]; 57 % of control under setting [3]; 93 % of control (endpoint: median tumor weight change, dose: 500.0 mg/kg/injection, schedule: Q01DX001 (ip), vehicle: saline with Tween-80).
